From publication PMC10578352, “Identification of a Protein Arginine Methyltransferase 7 (PRMT7)/Protein Arginine Methyltransferase 9 (PRMT9) Inhibitor” (Journal of Medicinal Chemistry, 2023)
pIC50: −log10 of the molar value.

Legend:
[1] = molecular target: T1, human recombinant PRMT9 (Homo sapiens, UniProt Q6P2P2); assay: AlphaLISA PRMT9 activity assay (modified BPS kit, biotinylated SF3B2 peptide); format: biochemical; conditions: PRMT9 0.105 μM, biotinylated SF3B2 (500–519) peptide 100 nM, SAM 25 μM
T1 construct: human recombinant PRMT9 (2–845; N-terminal FLAG-tag, C-terminal His6-tag); FLAG (N); His6 (C); purchased BPS BioScience 79124
T1 sequence (Q6P2P2 2-845): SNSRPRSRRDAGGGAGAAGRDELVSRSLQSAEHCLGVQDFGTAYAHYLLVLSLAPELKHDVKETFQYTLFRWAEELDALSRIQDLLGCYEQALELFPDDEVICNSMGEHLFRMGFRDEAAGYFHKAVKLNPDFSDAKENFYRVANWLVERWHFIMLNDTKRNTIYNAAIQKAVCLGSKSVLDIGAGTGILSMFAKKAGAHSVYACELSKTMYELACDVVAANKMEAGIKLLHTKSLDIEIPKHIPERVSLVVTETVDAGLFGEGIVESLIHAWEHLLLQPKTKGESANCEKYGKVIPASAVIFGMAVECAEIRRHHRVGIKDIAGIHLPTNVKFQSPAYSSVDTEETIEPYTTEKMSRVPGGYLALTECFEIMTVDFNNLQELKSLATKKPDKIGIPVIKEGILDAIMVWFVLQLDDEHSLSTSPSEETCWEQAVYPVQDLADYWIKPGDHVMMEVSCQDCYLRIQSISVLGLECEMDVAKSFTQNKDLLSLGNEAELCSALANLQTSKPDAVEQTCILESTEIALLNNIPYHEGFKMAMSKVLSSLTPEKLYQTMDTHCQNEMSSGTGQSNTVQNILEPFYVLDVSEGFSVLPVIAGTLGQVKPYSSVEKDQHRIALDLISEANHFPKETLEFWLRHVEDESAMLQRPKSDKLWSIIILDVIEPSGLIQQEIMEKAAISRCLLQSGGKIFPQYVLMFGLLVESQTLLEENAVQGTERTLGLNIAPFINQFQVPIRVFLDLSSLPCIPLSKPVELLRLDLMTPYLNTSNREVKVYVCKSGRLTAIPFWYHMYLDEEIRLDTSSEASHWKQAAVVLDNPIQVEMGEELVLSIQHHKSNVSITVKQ
Description: Accordingly, all the enzymatic inhibition data were obtained by performing the assays in these optimized conditions.
The reaction was incubated for 60 min. Afterward, in each well, 5 μL of a 1:100 dilution of Primary antibody 28 (BPS BioScience, #52140Z3) in Detection buffer (BPS BioScience) and 5 μL of anti-Rabbit acceptor beads (PerkinElmer, #AL104C) were added to obtain a final concentration of 20 μg/mL.
For each incubation step, the OptiPlate was sealed with a protective foil to prevent evaporation and contamination. Donor and Acceptor beads were added to the mixture in subdued light.
The 100% activity (positive control) was reached using vehicle (DMSO), while 0% activity (negative control) was obtained without the protein. Data were analyzed by using Excel and Prism software. Values obtained for each compound are mean ± SD determined for three separate experiments.

[2] = tested on: CePRMT9; assay: Radioisotope-based assay (SDS-PAGE, fluorography, densitometry), CePRMT9; format: biochemical, Caenorhabditis elegans; conditions: substrate GST-CeSFTB-2 (99–248), 25 °C
Description: Based on these outcomes, we resolved to explore the effect on the capability to inhibit PRMT9 enzymatic activity of further reduction of the distance between the pharmacophoric moieties. […] After the experiment was repeated with 100, 250, and 500 μM concentrations of each inhibitor, half inhibition was observed only at a concentration of roughly 250 μM (Figure 4d).
[…]. The experiments were performed as reported in the Experimental procedures section. GST-HsPRMT9 (a) and GST-HsPRMT7 (b) were incubated with human GST-SF3B2 (401–550) peptide or recombinant HsH2B, respectively (1 μg of enzyme, 5 μg of substrate), 0.14 μM [^3H]SAM, and the indicated concentrations of tested compounds at the corresponding optimal reaction temperature (37 °C for HsPRMT9, 15 °C for HsPRMT7). C. elegans GST-tagged enzymes PRMT9 (c) and PRMT7 (d) were incubated with GST-CeSFTB-2 (99–248) fragment or recombinant HsH2B, respectively (1 μg of enzyme, 5 μg of substrate), 0.14 μM [^3H]SAM, and the indicated concentrations of tested compounds at the corresponding optimal reaction temperature (25 °C for CePRMT9, 15 °C for CePRMT7). After SDS-PAGE, the gels were treated as previously described[48] and densitometry analysis was done using ImageJ software, and data was plotted as normalized activity to the no inhibitor controls.
Human PRMT9, C. elegans PRMT9, human PRMT7, and C. elegans PRMT7 plasmids were sequenced, expressed in E. coli as GST-fusion proteins, and purified as previously described.[48] Substrates were also sequenced and purified as described [human GST-SF3B2 (401–550);[13]C. elegans SFTB-2;[48] human histone H2B (New England Biolabs, M2505S)]. Xenopus laevis histone H2B was expressed in E. coli and purified similarly to what was previously reported by Luger et al.[72]
Reactions consisting of approximately 1 μg of enzyme (human or C. elegans GST-tagged enzymes PRMT9 and PRMT7), reacted with approximately 5 μg of substrate [for human PRMT9, human GST-SF3B2 401–550 fragment; C. elegans PRMT9 with C. elegans GST-SFTB-2 (99–248) fragment, or recombinant human histone H2B from New England Biolabs (M2505S)], were incubated for the indicated time in reaction buffer {50 mM potassium HEPES buffer, 10 mM NaCl, 1 mM dithiothreitol (DTT), pH 8.0 with 0.7 μM S-adenosyl-L-[methyl-^3H]methionine (^3H-AdoMet, PerkinElmer Life Sciences, 82.7 Ci/mmol, 0.55 mCi/mL in 10 mM H2SO4/EtOH [9:1 (v/v)])} in a final reaction volume of 60 μL. Each reaction was incubated at the corresponding optimal reaction temperature (37 °C for human PRMT9, 25 °C for C. elegans PRMT9, and 15 °C for C. elegans and human PRMT7 enzymes. MTA was dissolved in water, and a wavelength scan was taken to determine the final concentration using the extinction coefficient. The final concentrations used are indicated in the figure legends. […]. EML734, EML736, and EML709 were also dissolved in DMSO, and further dilutions were made in DMSO for the working stocks. For controls, no inhibitor reactions were created by the addition of the respective solvent (water for MTA and DMSO for EPZ015666 and EML inhibitors).
After the reaction incubations with the various concentrations of inhibitors, the reactions were quenched by adding 0.2 volume of 5× SDS sample loading buffer, and subsequently, the reactions were run on a 12.6% polyacrylamide Tris gel. To collect the radioactive signal, the gels were then treated in the same way as previously described.[48]
After various exposures were collected to ensure linear detection, densitometry analysis was done using ImageJ software, and data were plotted as normalized activity to the no inhibitor controls.

| SMILES | pIC50 [1] | % CePRMT9 residual activity ([2]; 5 uM) [%] | % CePRMT9 residual activity ([2]; 25 uM) [%] | % CePRMT9 residual activity ([2]; 50 uM) [%] | % CePRMT9 residual activity ([2]; 100 uM) [%] |
| --- | --- | --- | --- | --- | --- |
| COC(=O)c1cc(O)c2cc(NC(=O)NCCCCCNC(=N)NC[C@H]3O[C@@H](n4cnc5c(N)ncnc54)[C@H](O)[C@@H]3O)ccc2c1 [1c] | 5.24 | 110.89 | 81.62 | 50.08 | 12.31 |
| COC(=O)c1cc(O)c2cc(NC(=O)NCCCNC(=N)NC[C@H]3O[C@@H](n4cnc5c(N)ncnc54)[C@H](O)[C@@H]3O)ccc2c1 [1a] | 6.05 | 106.32 | 67.30 | 31.52 | 19.47 |
| COC(=O)c1cc(O)c2cc(NC(=O)NCCCNC(=N)NC[C@H]3O[C@@H](n4cnc5c(N)ncnc54)[C@H](O)[C@@H]3O)cc(C(F)(F)F)c2c1 [1j, Methyl 6-(3-(3-(3-(((2R,3S,4R,5R)-5-(6-Amino-9H-purin-9-yl)-3,4-dihydroxytetrahydrofuran-2-yl)methyl)guanidino)propyl)ureido)-4-hydroxy-8-(trifluoromethyl)-2-naphthoate] | 6.70 | – | – | – | – |
| COC(=O)c1cc(O)c2cc(NC(=O)NCCCCNC(=N)NC[C@H]3O[C@@H](n4cnc5c(N)ncnc54)[C@H](O)[C@@H]3O)ccc2c1 [1b] | 5.88 | 114.11 | 95.80 | 52.55 | 39.17 |
